Source: patent publication US9573957B2 (Boehringer Ingelheim International GmbH, priority 2013, dated 2017)

How the values were obtained:
[1] = tested on: synthesis of LTB4 in human whole blood; assay: LTB4 production inhibition assay in human whole blood (HWB); assay type: cell-based; settings: heparinized human whole blood, 15 min at 37° C., Calcimycin 20 μM 30 min, plasma LTB4 by HTRF
Experimental: The compounds of the invention are additionally tested in a human whole blood (HWB) assay to determine their ability to inhibit the synthesis of LTB4 in a cellular system. Compounds are combined with heparinized human whole blood and incubated for 15 minutes at 37° C. Calcimycin (20 μM final, prepared in phosphate-buffered saline, pH 7.4) is then added and the mixture is incubated for another 30 minutes at 37° C. The samples are centrifuged for 5 min at low speed (1500×g) and the plasma layer is removed. Plasma LTB4 concentrations are then measured using an antibody-based homogenous time-resolved fluorescence method (CisBio, Bedford, Mass.).

human LTA4 hydrolase = human LTA4 hydrolase (Homo sapiens (Human), UniProt P09960); assay: LTA4H Enzyme assay (peptidase, Arg-AMC cleavage); assay type: biochemical; settings: LTA4H Enzyme 1 nM, Arg-AMC substrate 50 μM, room temperature 1 h, fluorescence
human LTA4 hydrolase, sequence (P09960 whole entry): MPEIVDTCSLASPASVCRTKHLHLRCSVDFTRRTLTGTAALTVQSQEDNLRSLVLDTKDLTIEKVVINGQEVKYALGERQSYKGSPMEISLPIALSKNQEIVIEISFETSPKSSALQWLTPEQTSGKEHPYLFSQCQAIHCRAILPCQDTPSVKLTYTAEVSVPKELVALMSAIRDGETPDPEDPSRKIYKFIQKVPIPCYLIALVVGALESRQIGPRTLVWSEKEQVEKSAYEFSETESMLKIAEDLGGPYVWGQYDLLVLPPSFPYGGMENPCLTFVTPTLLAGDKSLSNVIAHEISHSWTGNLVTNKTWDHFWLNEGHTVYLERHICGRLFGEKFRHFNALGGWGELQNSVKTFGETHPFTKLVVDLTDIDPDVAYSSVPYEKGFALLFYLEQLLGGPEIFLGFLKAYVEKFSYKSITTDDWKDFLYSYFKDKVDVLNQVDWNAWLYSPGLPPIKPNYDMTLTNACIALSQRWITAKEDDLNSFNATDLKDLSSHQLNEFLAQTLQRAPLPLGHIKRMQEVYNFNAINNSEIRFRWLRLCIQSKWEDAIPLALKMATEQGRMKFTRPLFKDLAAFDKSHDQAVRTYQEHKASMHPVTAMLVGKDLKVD
Experimental: The compounds of the invention are assessed for the ability to interact with human LTA4 hydrolase in an enzymatic assay that measures the ability of the enzyme to cleave the peptide bond of arginyl-aminomethylcoumarin (Arg-AMC). LTA4H Enzyme (1 nM final), Arg-AMC substrate (50 μM final), and compound are combined in a reaction buffer (50 mM Tris-HCl (pH 7.5), 100 mM KCl, 0.5% bovine serum albumin) at room temperature for 1 h. The formation of product is assessed by measuring the fluorescence of aminomethylcoumarin product (excitation wavelength 380 nm/emission wavelength 460 nm).

Compound	IC50 [1] [nM]	IC50 (human LTA4 hydrolase) [nM]
CC(=O)NC1CN(Cc2ccc3cc(Oc4ccc(-c5ccn[nH]5)cn4)ccc3c2)C1 [Example 3, N-(1-{6-[5-(2H-Pyrazol-3-yl)-pyridin-2-yloxy]-naphthalen-2-ylmethyl}-azetidin-3-yl)-acetamide]	200	0.5
CN(Cc1ccc2cc(Oc3ccc(-c4ccn[nH]4)cn3)ccc2c1)[C@@H]1CCN(C(=O)CO)C1 [Example 19, 2-Hydroxy-1-[(R)-3-(methyl-{6-[5-(2H-pyrazol-3-yl)-pyridin-2-yloxy]-naphthalen-2-ylmethyl}-amino)-pyrrolidin-1-yl]-ethanone]	140	0.63
O=C([C@H]1CCCO1)N1CC2CCC(C1)N2Cc1ccc2cc(Oc3ccc(-c4ccn[nH]4)cn3)ccc2n1 [Example 54, (8-{6-[5-(2H-Pyrazol-3-yl)-pyridin-2-yloxy]-quinolin-2-ylmethyl}-3,8-diaza-bicyclo[3.2.1]oct-3-yl)-(R)-tetrahydro-furan-2-yl-methanone]	190	1.3
O=C1CCCN1C1CCN(CCC2COc3cc(Oc4ccc(-c5ccn[nH]5)cn4)ccc32)CC1 (centres unmarked) [Example 68, 1-[1-(2-{6-[5-(2H-Pyrazol-3-yl)-pyridin-2-yloxy]-2,3-dihydro-benzofuran-3-yl}-ethyl)-piperidin-4-yl]-pyrrolidin-2-one]	270	1.1
COCC(=O)N1CCN(Cc2cn3cc(Oc4ccc(-c5ccn[nH]5)cc4)ccc3n2)CC1 [Example 89, 2-Methoxy-1-(4-{6-[4-(2H-pyrazol-3-yl)-phenoxy]-imidazo[1,2-a]pyridin-2-ylmethyl}-piperazin-1-yl)-ethanone]	470	0.66
CN(C(=O)CO)[C@@H]1CCN(Cc2coc3cc(Oc4ccc(-c5ccn[nH]5)cn4)ccc23)C1 [Example 113, 2-Hydroxy-N-methyl-N-((R)-1-{6-[5-(2H-pyrazol-3-yl)-pyridin-2-yloxy]-benzofuran-3-ylmethyl}-pyrrolidin-3-yl)-acetamide]	160	0.42
O=C([C@@H]1CCCO1)N1CC2CCC(C1)N2Cc1ccc2cc(Oc3ccc(-c4ccn[nH]4)cn3)ccc2n1 [Example 55, (8-{6-[5-(2H-Pyrazol-3-yl)-pyridin-2-yloxy]-quinolin-2-ylmethyl}-3,8-diaza-bicyclo[3.2.1]oct-3-yl)-(S)-tetrahydro-furan-2-yl-methanone]	280	1.7
C[C@@H](O)C(=O)N1CC2CCC(C1)N2Cc1ccc2cc(Oc3ccc(-c4ccn[nH]4)cn3)ccc2n1 [Example 59, (R)-2-Hydroxy-1-(8-{6-[5-(2H-pyrazol-3-yl)-pyridin-2-yloxy]-quinolin-2-ylmethyl}-3,8-diaza-bicyclo[3.2.1]oct-3-yl)-propan-1-one]	110	0.54
O=C1CCCN1C1CCN(CCc2coc3cc(Oc4ccc(-c5ccn[nH]5)cn4)ccc23)CC1 [Example 72, 1-[1-(2-{6-[5-(2H-Pyrazol-3-yl)-pyridin-2-yloxy]-benzofuran-3-yl}-ethyl)-piperidin-4-yl]-pyrrolidin-2-one]	160	0.47
O=C1CCCN1C1CCN(C[C@H]2Cc3ccc(Oc4ccc(-c5ccn[nH]5)cn4)cc3O2)CC1 [Example 63, 1-(1-{(R)-6-[5-(2H-Pyrazol-3-yl)-pyridin-2-yloxy]-2,3-dihydro-benzofuran-2-ylmethyl}-piperidin-4-yl)-pyrrolidin-2-one]	190	0.66
CC(=O)N1CCN(C(=O)c2coc3cc(Oc4ccc(-c5ccn[nH]5)cn4)ccc23)CC1 [Example 112, 1-(4-{6-[5-(2H-Pyrazol-3-yl)-pyridin-2-yloxy]-benzofuran-3-carbonyl}-piperazin-1-yl)-ethanone]	350	1.9
N#CCC(=O)N1CC2CCC(C1)N2Cc1ccc2cc(Oc3ccc(-c4ccn[nH]4)cn3)ccc2n1 [Example 50, 3-Oxo-3-(8-{6-[5-(2H-pyrazol-3-yl)-pyridin-2-yloxy]-quinolin-2-ylmethyl}-3,8-diaza-bicyclo[3.2.1]oct-3-yl)-propionitrile]	170	0.69
COCC(=O)N1CC2CCC(C1)N2Cc1ccc2cc(Oc3ccc(-c4ccn[nH]4)cn3)ccc2n1 [Example 60, 2-Methoxy-1-(8-{6-[5-(2H-pyrazol-3-yl)-pyridin-2-yloxy]-quinolin-2-ylmethyl}-3,8-diaza-bicyclo[3.2.1]oct-3-yl)-ethanone]	110	0.33
O=C1[C@@H](O)CCN1C1CCN(C[C@H]2Cc3ccc(Oc4ccc(-c5ccn[nH]5)cn4)cc3O2)CC1 [Example 62, (S)-3-Hydroxy-1-(1-{(R)-6-[5-(2H-pyrazol-3-yl)-pyridin-2-yloxy]-2,3-dihydro-benzofuran-2-ylmethyl}-piperidin-4-yl)-pyrrolidin-2-one]	340	0.77
CN(C(=O)CO)C1CCN(Cc2ccc3cc(Oc4ncc(-c5ccn[nH]5)cn4)ccc3c2)CC1 [Example 31, 2-Hydroxy-N-methyl-N-(1-{6-[5-(2H-pyrazol-3-yl)-pyrimidin-2-yloxy]-naphthalen-2-ylmethyl}-piperidin-4-yl)-acetamide]	270	1.5
O=C1OCCN1C1CCN(Cc2ccc3cc(Oc4ncc(-c5ccn[nH]5)cn4)ccc3c2)CC1 [Example 33, 3-(1-{6-[5-(2H-Pyrazol-3-yl)-pyrimidin-2-yloxy]-naphthalen-2-ylmethyl}-piperidin-4-yl)-oxazolidin-2-one]	150	0.92
CO[C@@H](C)C(=O)N1CC2CCC(C1)N2Cc1ccc2cc(Oc3ccc(-c4ccn[nH]4)cn3)ccc2n1 [Example 53, (S)-2-Methoxy-1-(8-{6-[5-(2H-pyrazol-3-yl)-pyridin-2-yloxy]-quinolin-2-ylmethyl}-3,8-diaza-bicyclo[3.2.1]oct-3-yl)-propan-1-one]	110	0.66

The remaining lines, values ahead:

IC50 [1] [nM]	IC50 (human LTA4 hydrolase) [nM]	Compound
150	0.57	CO[C@H](C)C(=O)N1CCN(Cc2ccc3cc(Oc4ccc(-c5ccn[nH]5)cn4)ccc3n2)CC1 [Example 140, (R)-2-Methoxy-1-(4-{6-[5-(2H-pyrazol-3-yl)-pyridin-2-yloxy]-quinolin-2-ylmethyl}-piperazin-1-yl)-propan-1-one]
950	2.7	CC(C)(C)C(=O)N1CCN(Cc2ccc3cc(Oc4ncc(-c5ccn[nH]5)cn4)ccc3c2)CC1 [Example 35, 2,2-Dimethyl-1-(4-{6-[5-(2H-pyrazol-3-yl)-pyrimidin-2-yloxy]-naphthalen-2-ylmethyl}-piperazin-1-yl)-propan-1-one]
510	1.3	CC(C)(C#N)C(=O)N1CCN(Cc2ccc3cc(Oc4ccc(-c5ccn[nH]5)cn4)ccc3n2)CC1 [Example 145, 2,2-Dimethyl-3-oxo-3-(4-{6-[5-(2H-pyrazol-3-yl)-pyridin-2-yloxy]-quinolin-2-ylmethyl}-piperazin-1-yl)-propionitrile]
610	2.9	O=C(CO)N1CCN(Cc2ccc3cc(Oc4ncc(-c5ccn[nH]5)cn4)ccc3c2)CC1 [Example 48, 2-Hydroxy-1-(4-{6-[5-(2H-pyrazol-3-yl)-pyrimidin-2-yloxy]-naphthalen-2-ylmethyl}-piperazin-1-yl)-ethanone]
120	0.34	CC(=O)N[C@@H]1CCN(Cc2ccc3cc(Oc4ccc(-c5ccn[nH]5)cn4)ccc3c2)C1 [Example 12, N-((R)-1-{6-[5-(2H-Pyrazol-3-yl)-pyridin-2-yloxy]-naphthalen-2-ylmethyl}-pyrrolidin-3-yl)-acetamide]
170	0.67	CO[C@@H](C)C(=O)N1CCN(Cc2ccc3cc(Oc4ccc(-c5ccn[nH]5)cn4)ccc3n2)CC1 [Example 118, (S)-2-Methoxy-1-(4-{6-[5-(2H-pyrazol-3-yl)-pyridin-2-yloxy]-quinolin-2-ylmethyl}-piperazin-1-yl)-propan-1-one]
190	1.2	O[C@H]1CCCN(Cc2ccc3cc(Oc4ccc(-c5ccn[nH]5)cn4)ccc3c2)C1 [Example 14, (S)-1-{6-[5-(2H-Pyrazol-3-yl)-pyridin-2-yloxy]-naphthalen-2-ylmethyl}-piperidin-3-ol]
250	1	O=C(N1CCN(Cc2ccc3cc(Oc4ccc(-c5ccn[nH]5)cn4)ccc3n2)CC1)C1(O)CC1 [Example 126, (1-Hydroxy-cyclopropyl)-(4-{6-[5-(2H-pyrazol-3-yl)-pyridin-2-yloxy]-quinolin-2-ylmethyl}-piperazin-1-yl)-methanone]
670	3.7	C[C@H](O)CC(=O)N1CCN(Cc2ccc3cc(Oc4ccc(-c5ccn[nH]5)cn4)ccc3n2)CC1 [Example 117, (S)-3-Hydroxy-1-(4-{6-[5-(2H-pyrazol-3-yl)-pyridin-2-yloxy]-quinolin-2-ylmethyl}-piperazin-1-yl)-butan-1-one]
770	6	O=C(C1C2COCC21)N1CCN(Cc2ccc3cc(Oc4ccc(-c5ccn[nH]5)cn4)ccc3n2)CC1 (centres unmarked) [Example 136, (3-Oxa-bicyclo[3.1.0]hex-6-yl)-(4-{6-[5-(2H-pyrazol-3-yl)-pyridin-2-yloxy]-quinolin-2-ylmethyl}-piperazin-1-yl)-methanone]
120	0.72	CN(C(=O)CO)[C@@H]1CCN(Cc2ccc3cc(Oc4ccc(-c5ccn[nH]5)cn4)ccc3n2)C1 [Example 98]
